The values below come from paper PMC12136037, “Type II kinase inhibitors that target Parkinson’s disease–associated LRRK2” (Science Advances, 2025).

“And” between values parts separate entries of the source, which are not always exact repeats. Equal entries are not always repeated.

This assay deals with T1, LRRK2^RCKW (Homo sapiens, UniProt Q5S007).
T1 construct: LRRK2 R1327 to E2527; His6-Z-tag (TEV cleavable) (N, cleaved yes); host or cells: Sf9 insect cells (baculovirus)
T1 sequence (Q5S007 1327-2527): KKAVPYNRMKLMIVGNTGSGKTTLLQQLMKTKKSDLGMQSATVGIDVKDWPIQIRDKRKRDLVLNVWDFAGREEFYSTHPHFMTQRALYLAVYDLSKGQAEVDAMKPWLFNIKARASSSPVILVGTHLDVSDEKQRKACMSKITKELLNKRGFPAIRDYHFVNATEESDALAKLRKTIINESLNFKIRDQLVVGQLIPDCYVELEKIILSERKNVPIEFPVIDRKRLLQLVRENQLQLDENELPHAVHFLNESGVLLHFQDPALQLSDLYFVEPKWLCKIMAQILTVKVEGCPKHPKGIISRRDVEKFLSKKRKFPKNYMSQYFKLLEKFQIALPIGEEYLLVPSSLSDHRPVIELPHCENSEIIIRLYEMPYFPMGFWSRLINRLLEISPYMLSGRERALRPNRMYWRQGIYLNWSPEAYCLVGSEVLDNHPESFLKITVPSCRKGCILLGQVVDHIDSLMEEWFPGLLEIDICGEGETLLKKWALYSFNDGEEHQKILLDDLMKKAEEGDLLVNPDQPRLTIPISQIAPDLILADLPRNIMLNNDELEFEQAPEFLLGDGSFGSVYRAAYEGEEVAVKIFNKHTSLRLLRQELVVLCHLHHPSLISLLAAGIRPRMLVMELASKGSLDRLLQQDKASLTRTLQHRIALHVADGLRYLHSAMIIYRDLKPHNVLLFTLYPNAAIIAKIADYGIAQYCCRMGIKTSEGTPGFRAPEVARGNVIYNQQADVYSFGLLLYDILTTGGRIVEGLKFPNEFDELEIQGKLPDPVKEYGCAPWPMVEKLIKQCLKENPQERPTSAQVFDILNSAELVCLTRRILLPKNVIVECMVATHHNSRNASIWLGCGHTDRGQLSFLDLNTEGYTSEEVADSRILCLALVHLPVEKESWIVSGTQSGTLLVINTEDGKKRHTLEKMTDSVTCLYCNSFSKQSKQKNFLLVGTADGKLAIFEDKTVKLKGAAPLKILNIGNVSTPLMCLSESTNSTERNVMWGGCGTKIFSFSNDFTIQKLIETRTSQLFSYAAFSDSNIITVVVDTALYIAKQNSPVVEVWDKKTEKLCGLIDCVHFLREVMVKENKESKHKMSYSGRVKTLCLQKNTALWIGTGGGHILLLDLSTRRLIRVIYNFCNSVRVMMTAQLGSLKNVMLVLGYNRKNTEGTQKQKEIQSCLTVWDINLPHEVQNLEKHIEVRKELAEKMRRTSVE
In words: Single-molecule in vitro kinesin motility assay (TIRF) in the presence of LRRK2^RCKW. Format: biochemical. Particulars: for Raw data per microtubule (Figure 6c/6e, kinesin motility): individual microtubule values; for Mean each experiment (Figure 6c/6e raw data, kinesin motility): mean of each independent experiment; for rescue of kinesin motility in the presence of LRRK2^RCKW: MLi-2 5 μM, Ponatinib, RN277, RN341 10 μM. As to the method:
The excitation and emission paths were filtered using appropriate single band-pass filter cubes (Chroma). […] Illumination and image acquisition was controlled by NIS Elements Advanced Research software (Nikon; www.microscope.healthcare.nikon.com/products/software/nis-elements/nis-elements-advanced-research, RRID:SCR_014329).
Single-molecule total internal reflection fluorescence (TIRF) motility experiments were performed in flow chambers using the microscopy setup described above. Flow chambers were made by adhering 1^1/2 thickness cover glass (Corning) to a SuperFrost Plus microscope slide (Electron Microscopy Sciences) with double sided tape. Before flow chamber assembly, cover glass was washed in 1 M HCl at 60°C for 1 hour and sonicated in 100% ethanol for 10 min to reduce nonspecific binding. […] In brief, flow chambers were functionalized by incubation with biotin-BSA (1 mg/ml; Sigma-Aldrich) for 3 min, followed by streptavidin (0.5 mg/ml) for a further 3 min. Taxol-stabilized microtubules were diluted 1:100 in motility assay buffer [30 mM Hepes (pH 7.4), 50 mM potassium acetate, 2 mM magnesium acetate, 1 mM EGTA, 10% glycerol, 1 mM DTT, and 20 μM Taxol] and incubated with the flow chamber for 3 min. Following incubation, the flow chambers with adhered microtubules were washed three times with LRRK2 buffer [20 mM Hepes (pH 7.4), 80 mM NaCl, 0.5 mM TCEP, 5% glycerol, 2.5 mM MgCl2, and 20 μM GDP] before incubation for 5 min with either LRRK2 buffer with DMSO or specified kinase inhibitors (0 nM LRRK2^RCKW) or LRRK2 buffer containing LRRK2^RCKW and DMSO or kinase inhibitors as indicated. In all cases, DMSO or the indicated kinase inhibitors were incubated with LRRK2 buffer in the presence or absence of LRRK2^RCKW for 10 min before addition and incubation within the flow chambers.
Data were blinded before analysis. Kymographs were generated from motility movies and quantified for percent motility using ImageJ V.2.14.0 as previously described ([22], [63]). Processive, diffusive, and nonmotile events were manually annotated for calculation of the percentage of processive events per microtubule. […] Single-molecule movements with multiple behaviors were counted as multiple events. For percentage motility per microtubule measurements, processive events were divided by total events (nonmotile, diffuse, and processive) per kymograph.
For statistical analysis, brightness and contrast were adjusted in ImageJ for all motility movies and kymographs. Statistical analyses were performed in GraphPad Prism 10 (www.graphpad.com/, RRID:SCR_002798). Specific statistical analysis descriptors, n values, and P values can be found in the corresponding figure legends. All TIRF experiments were analyzed from three independent technical replicates.

For the molecule `Cc1ccc(-n2nc(C(C)(C)C)cc2NC(=O)Nc2cccc(-c3c[nH]c4nc(Cl)nc(N5CCOCC5)c34)c2)cc1` [Compound 30], the “rescue of kinesin motility in the presence of LRRK2^RCKW” value (“rescue of kinesin motility” below) is on record as “rescued kinesin motility”. Besides, for the setting “0nM RCKW, listed as RN277”, the “Raw data per microtubule (Figure 6c/6e, kinesin motility)” value (“Raw data per microtubule” for short) was 85.8824 and 78.125 and 82.8829 and 82.3529 and 90 and 85.1064; the “Mean each experiment (Figure 6c/6e raw data, kinesin motility)” value (“Mean each experiment” for short) was 80.5039 and 86.1765 and 85.4944. Where the note is “100nM RCKW, listed as RN277”, the “Raw data per microtubule” value is 94.0299 and 83.3333 and 78.0142 and 83.1325 and 78.4314 and 95.5556; the “Mean each experiment” value was 80.6738 and 80.7819 and 94.7927.

Consider `CCSc1nc(NC)c2c(-c3cccc(NC(=O)Nc4cc(C(C)(C)C)nn4-c4ccc(C)cc4)c3)c[nH]c2n1` [Compound 32], for which the “rescue of kinesin motility” value is given as “rescued kinesin motility”. Moreover, under “0nM RCKW, listed as RN341”, the “Raw data per microtubule” value was 77.4648 and 83.4483 and 76.4045 and 86.4865 and 75.9259 and 86.2385; the “Mean each experiment” value was 79.9264 and 81.2062 and 81.8517. Further, where the note is “100nM RCKW, listed as RN341”, the “Raw data per microtubule” value was 76.0563 and 76.9912 and 82.5688 and 91.0891 and 75.8621 and 85.9155; the “Mean each experiment” value is 79.78 and 83.4756 and 80.9859.

As to `Cc1ccc(C(=O)Nc2ccc(CN3CCN(C)CC3)c(C(F)(F)F)c2)cc1C#Cc1cnc2cccnn12` [Ponatinib, reference compound], the “rescue of kinesin motility” value is “rescued kinesin motility”. Where the note is “0nM RCKW”, the “Raw data per microtubule” value is 83.3333 and 79.7203 and 85.1562 and 84.9462 and 85.9649 and 81.3725; the “Mean each experiment” value was 82.4383 and 85.4556 and 82.3529. Also, for the setting “100nM RCKW”, the “Raw data per microtubule” value is 85.8491 and 82.7225 and 82.5758 and 84.8485 and 75 and 80.5556; the “Mean each experiment” value was 82.6491 and 79.9242 and 83.2023.
